The values below come from US12419304B2, “Aryl sulfide comprising benzylamine, synthesis method and application thereof” (Shandong Kangqiao Bio-Technology Co., Ltd., priority 2019, dated 2025).

The subject of this assay is Tetranychus cinnabarinus. As to the kind of experiment: Activity test of Tetranychus cinnabarinus (spray on inoculated bean seedlings, mortality after 72 hours). The note with it: for pest or weed control at 100 ppm: 100 ppm (100 mg/L); for pest or weed control at 100 ppm / pest or weed control at 6.25 ppm / pest or weed control at 25 ppm: whole plant sprayed, 72 hours, read-out: lethal rate against mites; for pest or weed control at 6.25 ppm: 6.25 ppm (6.25 mg/L); for pest or weed control at 25 ppm: 25 ppm (25 mg/L). Type of assay: in vivo. The method, then:
Activity Test of Tetranychus cinnabarinus
The compound under test was dissolved in acetone and diluted to desired concentration with 0.1% Tween 80 solution with acetone content not exceeding 5%.
One true leaf was removed from the bean seedlings having two true leaves. Tanyanychus cinarinus was inoculated and the cardinal number thereof investigated. The whole plant was sprayed with a handheld sprayer, and each treatment was repeated for 3 times. After treatment, the bean seedlings were cultured in a constant temperature room. 72 hours later, the number of live mites was investigated and the mortality rate was calculated. The number of Tetranychus cinnabarinus was 100-200 per inoculation. Mortality=(number of inoculated mites−number of live mites after treatment)[…]×100%.

The mark [1] stands for this setting: Concentration 3.12 ppm, acaricidal parallel test with bifenazate and cyflumetofen, read-out: Mortality %.

Read-outs that look alike come from different tables or passages of the source. Where only a bound is given, the exact number is not on record here.

`COc1ccc(-c2ccccc2)cc1NNC(=O)OC(C)C` [Bifenazate, bifenazate, reference compound]: the mortality at 3.12 ppm is 85%.

`Cc1cc(F)c(NCc2ccccc2C#N)cc1SCC(F)(F)F` [Compound 33]: the pest or weed control at 100 ppm was greater than 90%.

For the molecule `COC(=O)c1ccccc1CNc1cc(SCC(F)(F)F)c(C)cc1F` [Compound 53], the pest or weed control at 6.25 ppm is greater than 90%, the pest or weed control at 25 ppm is greater than 90% and the pest or weed control at 100 ppm was greater than 90%. Under setting [1], the mortality at 3.12 ppm was 99%.

Take `COC(=O)c1ccccc1CNc1cc([S+]([O-])CC(F)(F)F)c(C)cc1F` (centres unmarked) [Compound 54]: the pest or weed control at 6.25 ppm was greater than 90%, the pest or weed control at 25 ppm is greater than 90% and the pest or weed control at 100 ppm was greater than 90%. In addition, the mortality at 3.12 ppm under setting [1] is 100%.

As for `Cc1cc(F)c(NCc2cccc(F)c2)cc1SCC(F)(F)F` [Compound 229, 2-fluoro-N-(3-fluorobenzyl)-4-methyl-5-((2,2,2-trifluoroethyl)thio) aniline], the pest or weed control at 100 ppm was greater than 90%.

For the molecule `Cc1cc(F)c(NCc2ccc(Cl)c(Cl)c2)cc1SCC(F)(F)F` [Compound 247], the pest or weed control at 100 ppm is greater than 90%.

As for `Cc1cc(F)c(NCc2ccc(Cl)c(F)c2)cc1SCC(F)(F)F` [Compound 249, N-(4-chloro-3-fluorobenzyl)-2-fluoro-4-methyl-5-((2,2,2-trifluoroethyl)thio) aniline], the pest or weed control at 100 ppm was greater than 90%.

As for `COC(=O)c1cc(F)ccc1CNc1cc(SCC(F)(F)F)c(C)cc1F` [Compound 303, 5-Fluoro-2-((((2-Fluoro-4-methyl-5-(2,2,2-trifluoroethyl)thio)phenyl)amino)methyl) benzoate], the pest or weed control at 6.25 ppm is greater than 90%, the pest or weed control at 25 ppm is greater than 90% and the pest or weed control at 100 ppm was greater than 90%. Further, under setting [1], the mortality at 3.12 ppm worked out at 99%.

As to `COC(=O)c1cc(F)ccc1CNc1cc([S+]([O-])CC(F)(F)F)c(C)cc1F` (centres unmarked) [Compound 304], the pest or weed control at 6.25 ppm was greater than 90%, the pest or weed control at 25 ppm is greater than 90% and the pest or weed control at 100 ppm was greater than 90%. Further, the mortality at 3.12 ppm under setting [1] was 98%.

For the molecule `COC(=O)c1cc(F)ccc1CNc1cc(SCC(F)(F)F)c(Cl)cc1F` [Compound 1165], the pest or weed control at 6.25 ppm is greater than 90%, the pest or weed control at 25 ppm was greater than 90% and the pest or weed control at 100 ppm was greater than 90%. Besides, under setting [1], the mortality at 3.12 ppm was 99%.

With `COC(=O)c1cc(F)ccc1CNc1cc([S+]([O-])CC(F)(F)F)c(Cl)cc1F` (centres unmarked) [Compound 1166], the pest or weed control at 6.25 ppm was greater than 90%, the pest or weed control at 25 ppm is greater than 90% and the pest or weed control at 100 ppm was greater than 90%. The mortality at 3.12 ppm under setting [1] was 98%.

As to `COC(=O)c1ccccc1CNc1cc(SCC(F)(F)F)c(Cl)cc1F` [Compound 1202, 2-((((4-chloro-2-fluoro-5-((2,2,2-trifluoroethyl)thio)phenyl)amino)methyl) benzoate], the pest or weed control at 6.25 ppm is greater than 90%, the pest or weed control at 25 ppm is greater than 90% and the pest or weed control at 100 ppm was greater than 90%. Besides, under setting [1], the mortality at 3.12 ppm was 97%.

For the molecule `COC(=O)c1ccccc1CNc1cc([S+]([O-])CC(F)(F)F)c(Cl)cc1F` (centres unmarked) [Compound 1203], the pest or weed control at 6.25 ppm is greater than 90%, the pest or weed control at 25 ppm was greater than 90% and the pest or weed control at 100 ppm is greater than 90%. Moreover, under setting [1], the mortality at 3.12 ppm turned out to be 98%.

On to `COCCOC(=O)C(C#N)(C(=O)c1ccccc1C(F)(F)F)c1ccc(C(C)(C)C)cc1` (centres unmarked) [Cyflumetofen, cyflumetofen, reference compound], for which the mortality at 3.12 ppm came out at 72%.

What is called mortality is the percentage killed.
